Here are results for 19 compounds from patent publication US10219516B2, “Molecules having pesticidal utility, and intermediates, compositions, and processes, related thereto” (priority 2015, dated 2019).

Assay type in all cases: in vivo
Assay [1] relates to Yellow Fever Mosquito (Aedes aegypti, AEDSAE). Description: Bioassay on Yellow Fever Mosquito (YFM), 96-well plate larval assay. The conditions noted are these: for YFM rating: Yellow Fever Mosquito, 96-well plate larval assay; for YFM (Biological Results, rating): Species YFM (Yellow Fever Mosquito). Put shortly:
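Each well was scored for mortality after 3 days at room temperature under a non-evaporative lid. Test molecules came from DMSO masters (4000 ppm stock) diluted with water/acetone 90:10 and dispensed into six replicate plates, which were then infested with roughly 1-day-old larvae in liver-powder water.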

Assay [2] deals with Beet Armyworm (Spodoptera exigua, LAPHEG). Description: Bioassay on Beet Armyworm (BAW), 128-well diet tray assay. Put shortly:
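Second-instar larvae, one to five per well, placed on artificial diet surface-treated with 50 μg/cm^2 compound applied in 90:10 acetone-water and dried. Held 5–7 days at 25° C., 14:10 light-dark. Percent mortality recorded per well and averaged over eight wells.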

The subject of assay [3] is Cabbage Looper (Trichoplusia ni, TRIPNI). Description: Bioassay on Cabbage Looper (CL), 128-well diet tray assay. To be noted: Trichoplusia ni. The essentials:
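Test molecule is dissolved in 90:10 acetone-water and applied at 50 μg/cm^2 onto artificial diet, then dried. One to five second-instar larvae go into each of eight wells. Trays, sealed but vented, stay at 25° C., 14:10 light-dark, five to seven days, after which mortality is averaged.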

The mark [4] stands for this setting: Beet Armyworm, 128-well diet tray assay, read-out: BAW rating.
Setting [5] is: Cabbage Looper, 128-well diet tray assay, read-out: CL rating.
[6] abbreviates: Species BAW (Beet Armyworm), read-out: BAW (Biological Results, rating).
Where [7] appears, read: Species CL (Cabbage Looper), read-out: CL (Biological Results, rating).

The structures appear in SMILES notation. Read-outs that look alike come from different tables or passages of the source.

In the case of `O=C(Nc1cc(Cl)ccn1)c1cc(NC(=O)[C@H]2[C@H](c3cc(Cl)cc(Cl)c3)C2(Cl)Cl)ccc1Cl` (relative stereo) [PF140, trans-2-Chloro-N-(4-chloropyridin-2-yl)-5-(2,2-dichloro-3-(3,5-dichlorophenyl)cyclopropane-1-carboxamido)benzamide], the YFM rating entry in assay [1] is recorded as “A (80-100)”. Further, the pest or weed control at 50 µg/cm2 in assay [2] (setting [4]) and in assay [3] (setting [5]) was 50 to 100% each time.
For the compound `O=C(Nc1cncnc1)c1cc(NC(=O)[C@H]2[C@H](c3cc(Cl)cc(Cl)c3)C2(Cl)Cl)ccc1Cl` (relative stereo) [F295, trans-2-Chloro-5-(2,2-dichloro-3-(3,5-dichlorophenyl)cyclopropane-1-carboxamido)-N-(pyrimidin-5-yl)benzamide], in assay [1], the “YFM (Biological Results, rating)” value is listed as “A (80-100)”. Also, the pest or weed control at 50 µg/cm2 in assay [2] (setting [6]) and in assay [3] (setting [7]) was 50 to 100% in each case.
In the case of `O=C(Nc1ccc(-c2nccs2)cc1)c1cc(NC(=O)[C@H]2[C@H](c3cc(Cl)cc(Cl)c3)C2(Cl)Cl)ccc1Cl` (relative stereo) [F461, trans-2-Chloro-5-(2,2-dichloro-3-(3,5-dichlorophenyl)cyclopropane-1-carboxamido)-N-(4-(thiazol-2-yl)phenyl)benzamide], the YFM rating result in assay [1] is given as “A (80-100)”. Moreover, the pest or weed control at 50 µg/cm2 in assay [2] (setting [4]) and in assay [3] (setting [5]) was 50 to 100% each time.
As for `CNc1ccc(NC(=O)c2cc(NC(=O)[C@H]3[C@H](c4ccc(F)c(Cl)c4)C3(Cl)Cl)ccc2Cl)c(C)c1` (relative stereo) [F224, trans-2-Chloro-5-(2,2-dichloro-3-(3-chloro-4-fluorophenyl)cyclopropane-1-carboxamido)-N-(2-methyl-4-(methylamino)phenyl)benzamide], the “YFM (Biological Results, rating)” value in assay [1] is reported as “A (80-100)”. Moreover, the pest or weed control at 50 µg/cm2 in assay [2] (setting [6]) and in assay [3] (setting [7]) was 50 to 100% in each case.
As for `O=C(Nc1cc(F)c2[nH]ccc2c1)c1cc(NC(=O)[C@H]2[C@H](c3cc(Cl)cc(Cl)c3)C2(Cl)Cl)ccc1Cl` (relative stereo) [F462, 2-Chloro-5-(trans)-(2,2-dichloro-3-(3,5-dichlorophenyl)cyclopropane-1-carboxamido)-N-(7-fluoro-1H-indol-5-yl)benzamide], the YFM rating result in assay [1] is on record as “A (80-100)”. Also, the pest or weed control at 50 µg/cm2 in assay [2] (setting [4]) and in assay [3] (setting [5]) was 50 to 100% each time.
Regarding `N#Cc1cc(F)ccc1NC(=O)c1cc(NC(=O)[C@H]2[C@H](c3cc(Cl)cc(Br)c3)C2(Cl)Cl)ccc1Cl` (relative stereo) [F333, 5-(trans-3-(3-Bromo-5-chlorophenyl)-2,2-dichlorocyclopropane-1-carboxamido)-2-chloro-N-(2-cyano-4-fluorophenyl)benzamide], the “YFM (Biological Results, rating)” value in assay [1] is “A (80-100)”. Besides, the pest or weed control at 50 µg/cm2 in assay [2] (setting [6]) and in assay [3] (setting [7]) was 50 to 100% throughout.
In the case of `O=C(Nc1c(F)cccc1F)c1cc(NC(=O)[C@H]2[C@H](c3cccc(C(F)(F)F)c3)C2(Cl)Cl)ccc1Cl` (relative stereo) [F58, trans-2-Chloro-5-(2,2-dichloro-3-(3-(trifluoromethyl)phenyl)cyclopropane-1-carboxamido)-N-(2,6-difluorophenyl)benzamide], the “YFM (Biological Results, rating)” value in assay [1] was “A (80-100)”. Further, the pest or weed control at 50 µg/cm2 in assay [2] (setting [6]) and in assay [3] (setting [7]) was 50 to 100% throughout.
In the case of `N#Cc1cc(N)ccc1NC(=O)c1cc(NC(=O)[C@H]2[C@H](c3cc(Cl)cc(Cl)c3)C2(Cl)Cl)ccc1Cl` (relative stereo) [F236, trans-N-(4-amino-2-cyanophenyl)-2-chloro-5-(2,2-dichloro-3-(3,5-dichlorophenyl)cyclopropane-1-carboxamido)benzamide], the “YFM (Biological Results, rating)” value in assay [1] is recorded as “A (80-100)”. Also, the pest or weed control at 50 µg/cm2 in assay [2] (setting [6]) and in assay [3] (setting [7]) was 50 to 100% each time.
Turning to `Nc1cc(NC(=O)c2cc(NC(=O)[C@H]3[C@H](c4ccc(Cl)c(Cl)c4)C3(Cl)Cl)ccc2Cl)c(F)cc1F` [F354, N-(5-Amino-2,4-difluorophenyl)-2-chloro-5-((1R,3R)-2,2-dichloro-3-(3,4-dichlorophenyl)cyclopropane-1-carboxamido)benzamide], the “YFM (Biological Results, rating)” value in assay [1] was “A (80-100)”. Moreover, the pest or weed control at 50 µg/cm2 in assay [2] (setting [6]) and in assay [3] (setting [7]) was 50 to 100% each time.
Turning to `COc1cc(F)ccc1NC(=O)c1cc(NC(=O)[C@H]2[C@H](c3cc(Cl)cc(Cl)c3)C2(Cl)Cl)ccc1Cl` (relative stereo) [PF58, trans-2-Chloro-5-(2,2-dichloro-3-(3,5-dichlorophenyl)cyclopropane-1-carboxamido)-N-(4-fluoro-2-methoxyphenyl)benzamide], in assay [1], the YFM rating entry is listed as “A (80-100)”. In addition, the pest or weed control at 50 µg/cm2 in assay [2] (setting [4]) and in assay [3] (setting [5]) was 50 to 100% in each case.
In the case of `O=C(Nc1cncc(NO)c1)c1cc(NC(=O)[C@H]2[C@H](c3ccc(Cl)c(Cl)c3)C2(Cl)Cl)ccc1Cl` [F526, 2-Chloro-5-((1R,3R)-2,2-dichloro-3-(3,4-dichlorophenyl)cyclopropane-1-carboxamido)-N-(5-(hydroxyamino)pyridin-3-yl)benzamide], the YFM rating result in assay [1] is on record as “A (80-100)”. Moreover, the pest or weed control at 50 µg/cm2 in assay [2] (setting [4]) and in assay [3] (setting [5]) was 50 to 100% throughout.
Take `C#Cc1ccc(NC(=O)c2cc(NC(=O)[C@H]3[C@H](c4cc(Cl)cc(Cl)c4)C3(Cl)Cl)ccc2Cl)cc1` (relative stereo) [PF15, trans-2-Chloro-5-(2,2-dichloro-3-(3,5-dichlorophenyl)cyclopropane-1-carboxamido)-N-(4-ethynylphenyl)benzamide]: the YFM rating result in assay [1] is “B (More than 0-Less than 80)”. Moreover, the pest or weed control at 50 µg/cm2 in assay [2] (setting [4]) and in assay [3] (setting [5]) was 50 to 100% each time.
For the compound `O=C(Nc1ncc(F)cc1F)c1cc(NC(=O)[C@H]2[C@H](c3ccc(C(F)F)cc3)C2(Cl)Cl)ccc1Cl` (relative stereo) [F591, 2-Chloro-5-(trans-2,2-dichloro-3-(4-(difluoromethyl)phenyl)cyclopropane-1-carboxamido)-N-(3,5-difluoropyridin-2-yl)benzamide], the YFM rating entry in assay [1] is recorded as “A (80-100)”. Also, the pest or weed control at 50 µg/cm2 in assay [2] (setting [4]) and in assay [3] (setting [5]) was 50 to 100% throughout.
Turning to `O=C(Nc1ccc(F)cc1)c1cc(NC(=O)[C@H]2[C@H](c3ccc([N+](=O)[O-])cc3)C2(Cl)Cl)ccc1Cl` (relative stereo) [F422, 2-chloro-5-(trans-2,2-dichloro-3-(4-nitrophenyl)cyclopropane-1-carboxamido)-N-(4-fluorophenyl)benzamide], in assay [1], the YFM rating result is “A (80-100)”. Also, the pest or weed control at 50 µg/cm2 in assay [2] (setting [4]) and in assay [3] (setting [5]) was 50 to 100% throughout.
Regarding `O=C(Nc1ccc(F)cc1F)c1cc(NC(=O)[C@H]2[C@H](c3cc(F)c(Br)c(F)c3)C2(Cl)Cl)ccc1Cl` (relative stereo) [F541, 5-(trans-3-(4-Bromo-3,5-difluorophenyl)-2,2-dichlorocyclopropane-1-carboxamido)-2-chloro-N-(2,4-difluorophenyl)benzamide], the YFM rating entry in assay [1] is given as “A (80-100)”. Moreover, the pest or weed control at 50 µg/cm2 in assay [2] (setting [4]) and in assay [3] (setting [5]) was 50 to 100% throughout.
For the compound `O=C(Nc1ccc2[nH]ccc2c1)c1cc(NC(=O)C2C(c3cc(Cl)cc(Cl)c3)C2(Cl)Cl)ccc1Cl` (stereo not drawn) [F435, 2-Chloro-5-(trans)-2,2-dichloro-3-(3,5-dichlorophenyl)cyclopropane-1-carboxamido)-N-(1H-indol-5-yl)benzamide], the YFM rating result in assay [1] is given as “A (80-100)”. Moreover, the pest or weed control at 50 µg/cm2 in assay [2] (setting [4]) and in assay [3] (setting [5]) was 50 to 100% in each case.
On to `O=C(Nc1ccc(F)cc1F)c1cc(NC(=O)[C@H]2[C@H](c3ccc(Br)c(C(F)(F)F)c3)C2(Cl)Cl)ccc1Cl` (relative stereo) [F366, 5-(trans)-(3-(4-Bromo-3-(trifluoromethyl)phenyl)-2,2-dichlorocyclopropane-1-carboxamido)-2-chloro-N-(2,4-difluorophenyl)benzamide], for which the “YFM (Biological Results, rating)” value in assay [1] is on record as “A (80-100)”. In addition, the pest or weed control at 50 µg/cm2 in assay [2] (setting [6]) and in assay [3] (setting [7]) was 50 to 100% each time.
Take `Cc1cc2cc(NC(=O)c3cc(NC(=O)C4C(c5cc(Cl)cc(Cl)c5)C4(Cl)Cl)ccc3Cl)ccc2[nH]1` (stereo not drawn) [F454, 2-Chloro-5-(trans)-2,2-dichloro-3-(3,5-dichlorophenyl)cyclopropane-1-carboxamido)-N-(2-methyl-1H-indol-5-yl)benzamide]: the YFM rating result in assay [1] is listed as “A (80-100)”. The pest or weed control at 50 µg/cm2 in assay [2] (setting [4]) and in assay [3] (setting [5]) was 50 to 100% each time.
With `COC(=O)C(O)(c1ccc(NC(=O)c2cc(NC(=O)[C@H]3[C@H](c4cc(Cl)cc(Cl)c4)C3(Cl)Cl)ccc2Cl)c(C)c1)C(F)(F)F` (relative stereo) [F257, Methyl 2-(4-(2-chloro-5-(trans)-(2,2-dichloro-3-(3,5-dichlorophenyl)cyclopropane-1-carboxamido)benzamido)-3-methylphenyl)-3,3,3-trifluoro-2-hydroxypropanoate], in assay [1], the “YFM (Biological Results, rating)” value is “A (80-100)”. Besides, the pest or weed control at 50 µg/cm2 in assay [2] (setting [6]) and in assay [3] (setting [7]) was 50 to 100% each time.
